Test results: the NIST ThermoML archive (doi:10.1016/j.jct.2016.08.010)
Numbers after ± are expanded uncertainties.

Columns and labels:
[1] = excess molar enthalpy (molar enthalpy of mixing); xn = mol fraction of the nth substance listed; settings: 298.15 K, 100 kPa, Liquid, Power-compensation calorimetry
[2] = xn = mol fraction of the nth substance listed; settings: 100 kPa, Liquid; for speed of sound: Frequency=3 MHz, Sing-around technique in a fixed-path interferometer; for mass density: Vibrating tube method

CCn1cc[n+](C)c1.F[B-](F)(F)F [1-ethyl-3-methylimidazolium tetrafluoroborate] + CCCCn1cc[n+](C)c1.F[B-](F)(F)F
[1]
Settings	excess molar enthalpy [kcal/mol]
x2 = 0.0714	0.00215 ± 0.000203
x2 = 0.1234	0.00387 ± 0.000215
x2 = 0.1781	0.00574 ± 0.000239
x2 = 0.2396	0.00786 ± 0.000287
x2 = 0.2944	0.00946 ± 0.000311
x2 = 0.3468	0.0108 ± 0.000335
x2 = 0.3972	0.0117 ± 0.000335
x2 = 0.4428	0.0123 ± 0.000359
x2 = 0.4859	0.0126 ± 0.000359
x2 = 0.5374	0.0126 ± 0.000359
x2 = 0.5884	0.0122 ± 0.000359
x2 = 0.6291	0.0117 ± 0.000335
x2 = 0.6724	0.0109 ± 0.000335
x2 = 0.7172	0.00975 ± 0.000311
x2 = 0.7639	0.00839 ± 0.000287
x2 = 0.8109	0.00684 ± 0.000263
x2 = 0.8642	0.00485 ± 0.000239
x2 = 0.9077	0.00327 ± 0.000215

[2]
Settings	mass density, 293.15 K [kg/m3]	mass density, 298.15 K [kg/m3]	mass density, 303.15 K [kg/m3]	mass density, 308.15 K [kg/m3]	speed of sound, 293.15 K [m/s]	speed of sound, 298.15 K [m/s]	speed of sound, 303.15 K [m/s]	speed of sound, 308.15 K [m/s]
x2 = 0	1283.9 ± 2	1279.9 ± 2	1276.3 ± 2	1272.1 ± 2	1631.1 ± 1.6	1619.2 ± 1.6	1607.4 ± 1.6	1596.2 ± 1.6
x2 = 0.0728	1274.4 ± 2	1270.8 ± 2	1267.5 ± 2	1263.8 ± 2	1628.1 ± 1.6	1616 ± 1.6	1604 ± 1.6	1592.6 ± 1.6
x2 = 0.1143	1269.1 ± 2	1265.7 ± 2	1262.6 ± 2	1259.1 ± 2	1626.4 ± 1.6	1614.2 ± 1.6	1602.2 ± 1.6	1590.6 ± 1.6
x2 = 0.148	1264.9 ± 2	1261.6 ± 2	1258.7 ± 2	1255.3 ± 2	1625 ± 1.6	1612.7 ± 1.6	1600.7 ± 1.6	1589.1 ± 1.6
x2 = 0.1737	1261.8 ± 2	1258.6 ± 2	1255.7 ± 2	1252.4 ± 2	1624 ± 1.6	1611.6 ± 1.6	1599.5 ± 1.6	1587.9 ± 1.6
x2 = 0.2204	1256.4 ± 2	1253.2 ± 2	1250.5 ± 2	1247.4 ± 2	1622 ± 1.6	1609.6 ± 1.6	1597.5 ± 1.6	1585.7 ± 1.6
x2 = 0.2684	1251.1 ± 2	1248 ± 2	1245.3 ± 2	1242.3 ± 2	1620 ± 1.6	1607.5 ± 1.6	1595.3 ± 1.6	1583.5 ± 1.6
x2 = 0.3155	1246.2 ± 2	1243.1 ± 2	1240.5 ± 2	1237.6 ± 2	1618 ± 1.6	1605.4 ± 1.6	1593.3 ± 1.6	1581.3 ± 1.6
x2 = 0.3619	1241.6 ± 2	1238.6 ± 2	1236 ± 2	1233.2 ± 2	1616 ± 1.6	1603.3 ± 1.6	1591.2 ± 1.6	1579.1 ± 1.6
x2 = 0.4167	1236.6 ± 2	1233.6 ± 2	1231.1 ± 2	1228.3 ± 2	1613.6 ± 1.6	1600.8 ± 1.6	1588.7 ± 1.6	1576.6 ± 1.6
x2 = 0.4759	1231.8 ± 2	1228.7 ± 2	1226.1 ± 2	1223.4 ± 2	1610.8 ± 1.6	1598 ± 1.6	1585.9 ± 1.6	1573.7 ± 1.6
x2 = 0.5282	1227.9 ± 2	1224.7 ± 2	1222.2 ± 2	1219.4 ± 2	1608.3 ± 1.7	1595.5 ± 1.7	1583.3 ± 1.6	1571.1 ± 1.6
x2 = 0.5742	1224.7 ± 2	1221.5 ± 2	1218.9 ± 2	1216.1 ± 2	1605.9 ± 1.7	1593.1 ± 1.7	1581 ± 1.7	1568.8 ± 1.7
x2 = 0.6356	1220.9 ± 2.1	1217.6 ± 2.1	1214.9 ± 2	1212.1 ± 2	1602.7 ± 1.7	1589.8 ± 1.7	1577.7 ± 1.7	1565.6 ± 1.7
x2 = 0.6835	1218.1 ± 2.1	1214.8 ± 2.1	1212.1 ± 2.1	1209.1 ± 2	1600 ± 1.7	1587.1 ± 1.7	1575.1 ± 1.7	1563 ± 1.7
x2 = 0.7381	1215.3 ± 2.1	1211.8 ± 2.1	1209 ± 2.1	1206 ± 2.1	1596.7 ± 1.7	1583.9 ± 1.7	1572 ± 1.7	1559.8 ± 1.7
x2 = 0.7892	1212.8 ± 2.1	1209.2 ± 2.1	1206.3 ± 2.1	1203.2 ± 2.1	1593.5 ± 1.7	1580.7 ± 1.7	1568.8 ± 1.7	1556.8 ± 1.7
x2 = 0.8364	1210.6 ± 2.1	1206.9 ± 2.1	1203.9 ± 2.1	1200.6 ± 2.1	1590.4 ± 1.7	1577.6 ± 1.7	1565.8 ± 1.7	1553.8 ± 1.7
x2 = 0.8932	1208 ± 2.1	1204.2 ± 2.1	1201 ± 2.1	1197.6 ± 2.1	1586.4 ± 1.7	1573.7 ± 1.7	1562 ± 1.7	1550 ± 1.7
